Measurements taken from patent publication US7312330B2, “Bicycloheteroarylamine compounds as ion channel ligands and uses thereof” (Renovis, Inc., priority 2003, dated 2007).

Tests used:
hVR1 = hVR1 (Homo sapiens, UniProt Q8NER1); experiment: Calcium imaging assay (Fura2) of VR1 antagonists, proton stimulation; format: cell-based; details: HEK 293 cells expressing hVR1; for % Inhibition @ 1 μM: calcium ion influx induced by proton stimulation (pH 5.7); for IC50: calcium ion influx induced by proton stimulation
Sequence of hVR1 (Q8NER1 whole entry): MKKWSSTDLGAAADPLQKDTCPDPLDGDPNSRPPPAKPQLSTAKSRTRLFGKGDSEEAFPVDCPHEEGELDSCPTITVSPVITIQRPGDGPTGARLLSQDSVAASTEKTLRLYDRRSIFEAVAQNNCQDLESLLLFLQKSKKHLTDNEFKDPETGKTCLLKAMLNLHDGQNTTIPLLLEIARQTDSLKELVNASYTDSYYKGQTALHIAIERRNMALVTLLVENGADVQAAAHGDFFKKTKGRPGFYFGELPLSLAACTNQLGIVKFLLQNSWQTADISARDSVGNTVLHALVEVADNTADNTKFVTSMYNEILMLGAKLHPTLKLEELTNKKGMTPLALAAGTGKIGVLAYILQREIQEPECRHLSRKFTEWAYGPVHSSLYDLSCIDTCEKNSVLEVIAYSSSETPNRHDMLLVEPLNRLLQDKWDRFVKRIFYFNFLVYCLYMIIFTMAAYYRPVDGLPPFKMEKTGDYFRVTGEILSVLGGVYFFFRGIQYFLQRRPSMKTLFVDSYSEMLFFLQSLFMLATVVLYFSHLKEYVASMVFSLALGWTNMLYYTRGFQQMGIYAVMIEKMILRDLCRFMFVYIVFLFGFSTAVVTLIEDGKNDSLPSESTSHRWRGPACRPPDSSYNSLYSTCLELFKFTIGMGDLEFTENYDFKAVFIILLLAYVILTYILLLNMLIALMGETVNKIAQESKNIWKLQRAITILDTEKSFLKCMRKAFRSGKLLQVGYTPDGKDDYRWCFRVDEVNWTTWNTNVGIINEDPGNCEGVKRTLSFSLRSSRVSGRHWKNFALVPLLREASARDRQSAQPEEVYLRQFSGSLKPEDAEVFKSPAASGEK
From the text: VR1 protein is a heat-gated cation channel that exchanges about 10 calcium ions for every sodium ion resulting in neuronal membrane depolarization and elevated intracellular calcium ion levels. Therefore the functional activity of compounds at the VR1 receptor may be determined by measuring changes in intracellular calcium levels in 293 cells expressing capsaicin-insensitive VR1 receptor variants. A dual wavelength ratiometric dye, Fura2, was used as an indicator of relative levels of calcium ions in a 96 well format using a bench top scanning fluorometer with integrated fluidics and temperature control (Flex Station, Molecular Devices).
A dual wavelength ratiometric dye, Fura2, was used as an indicator of relative levels of [Ca2+] in a 96 well format using a bench top scanning fluorometer with integrated fluidics and temperature control (Flex Station, Molecular Devices).
HEK 293 cells expressing hVR1 were grown on PDL coated 96-well black-walled plates, in the presence of a DMEM medium containing 5% Penstrep, 5% Glutamax, 200 ug/mL Hygromycin, 5 μg/mL Blasticide and 10% heat inactivated FBS. Prior to assay, the cells were loaded with 5 μg/mL Fura2 in normal saline solution at 37° C. for 40 minutes. Cells were then washed with normal saline to remove the dye.
The assay consists of two stages; a pre-treatment phase followed by a treatment phase. In the pretreatment phase, 50 μl of a compound solution was added to the cells. Immediately following, 50 μl of the test compound in the presence of agonist (a saline solution plus 10 mM citric acid bufferd to pH 5.7 with HCl) was added. Fura2 was excited at […] to indicate relative calcium concentration. Changes in wavelength measurements were made throughout the course of the experiment in 4 second intervals over a period of 3 minutes. The fluorescence ratio from the excitations at […] was recorded for analysis. Responses were measured as peak fluorescence ratio after compound-agonist addition minus baseline fluorescence ratio prior to treatment and were calculated for each concentration tested using the SoftMaxPro software. Data was expressed as percentage inhibition calculated as follows: […]
A dose response curve was then determined, from which the ID50 of each compound was calculated.

HsVR1 = target: T1, HsVR1 (Homo sapiens, UniProt Q8NER1); experiment: Two-electrode voltage clamp recording of capsaicin induced VR1 current in Xenopus oocytes; format: cell-based; details: 250 nM capsaicin induced current; Xenopus oocytes injected with HsVR1 RNA; read-out: EPHYS IC50
T1 construct: expressed in transfected cells; host or cells: Xenopus oocytes injected with HsVR1 RNA
T1 sequence (Q8NER1 whole entry): as above
Protocol: Xenopus ovaries obtained from NASCO were isolated by enzymatic dissociation using collagenase (Worthington, 2 mg/ml). Oocytes were then individually injected with HsVR1 RNA (0.5 μg/μl). Injected oocytes are stored in standard oocyte incubation solution, ND96, containing 96 mM NaCl, 2 mM KCl, 1 mM MgCl2, 0.3 mM CaCl2 and 50 µg/ml Gentamicin at 16° C. Capsaicin induced VR1 current is observed in oocytes 4-5 days after injection. Eight oocytes are placed in the recording chambers. Each oocyte is impaled by 2 glass electrodes having resistances of 0.5 to 1 MOhm when filled with a 3 M KCl solution. Electrode advancement and oocyte impalement are under software control (OpusXpress 1.1, Axon Instruments). VR1 expression in the oocytes is verified using 250 nM capsaicin. Test solution delivery to the oocytes during the experiment is also under software control. The solutions are prepared in 96 well plates and robotically pipetted into the oocyte recording chambers by an 8 channel pipetter. Oocytes are exposed to several 250 μl applications of 250 nM capsaicin until a stable current amplitude is obtained with each application. A set of 96 well plates containing the test solutions is prepared so that the sequence of solution application to the oocyte is as follows: 250 μls of 250 nM capsaicin is followed by a several minute wash with standard oocyte saline. 1 ml of the test compound is then added at a particular test concentration, followed immediately by 250 μl of the compound at the same concentration plus 250 nM capsaicin. The capsaicin induced VR1 current is recorded in the presence and absence of test compound for each concentration. The standard test concentrations range from 0.3 to 2000 nM. Quantitative measurement of VR1 current block was carried out by calculating the area under the curve described by the inward current. The resulting numbers for capsaicin induced currents in the presence of increasing compound concentration are normalized to the maximum current obtained. These points are then plotted on a logarithmic scale and fitted by a Hill function. The IC50 values for each compound tested were then calculated from the resulting Hill fit. All compounds that inhibited capsaicin induced current greater than 50% were considered positives.

SMILES	% Inhibition @ 1 μM (hVR1)	IC50 (hVR1)	IC50 (HsVR1)
CS(=O)(=O)c1cccnc1N1CCc2c(ncnc2Nc2ccc(S(=O)(=O)C(F)(F)F)cc2)C1 [Example 23, 7-(3-Methanesulphonylpyridin-2-yl)-N-(4-(trifluoromethylsulphonyl)phenyl)-5,6,7,8-tetrahydropyrido[3,4-d]pyrimidin-4-amine]	++++ (compound exhibited 76% or greater inhibition of calcium ion influx induced by proton stimulation)	101 to 500 nM	101 to 500 nM
CC(C)(C)c1ccc(Nc2ncnc3c2CCN(c2ncccc2Cl)C3)cc1.Cl [Example 3, N-(4-tert-Butylphenyl)-7-(3-chloropyridin-2-yl)-5,6,7,8-tetrahydropyrido[3,4-d]pyrimidin-4-amine hydrochloride]	++++ (compound exhibited 76% or greater inhibition of calcium ion influx induced by proton stimulation)	< 100 nM	< 100 nM
FC(F)(F)c1ccc(Nc2nc(NCCN3CCOCC3)nc3c2CCN(c2ncccc2Cl)C3)cc1 [Example 33, 7-(3-Chloropyridin-2-yl)-N^4-(4-(trifluoromethyl)phenyl)-5,6,7,8-tetrahydro-N^2-(2-morpholinoethyl)pyrido[3,4-d]pyrimidine-2,4-diamine]	+ (compound exhibited 0-25% inhibition of calcium ion influx induced by proton stimulation)	–	501 to 1000 nM
CCOc1nc2c(c(Nc3ccc(C(F)(F)F)cc3)n1)CCN(c1ncccc1S(C)(=O)=O)C2 [Example 64, 2-Ethoxy-N-(4-(trifluoromethyl)phenyl)-5,6,7,8-tetrahydro-7-(3-(methylsulfonyl)pyridin-2-yl)pyrido[3,4-d]pyrimidin-4-amine]	+++ (compound exhibited 51-75% inhibition of calcium ion influx induced by proton stimulation)	501 to 1000 nM	101 to 500 nM
CSc1nc2c(c(Nc3ccc(C(C)(C)C)cc3)n1)CCN(c1ncccc1Cl)C2 [Example 28, N-(4-tert-Butylphenyl)-7-(3-chloropyridin-2-yl)-5,6,7,8-tetrahydro-2-(methylthio)pyrido[3,4-d]pyrimidin-4-amine]	++++ (compound exhibited 76% or greater inhibition of calcium ion influx induced by proton stimulation)	< 100 nM	< 100 nM
CCOc1nc2c(c(Nc3ccc(C(F)(F)F)cc3)n1)CCN(c1ncccc1Cl)C2 [Example 48, 7-(3-Chloropyridin-2-yl)-2-ethoxy-N-(4-(trifluoromethyl)phenyl)-5,6,7,8-tetrahydropyrido[3,4-d]pyrimidin-4-amine]	++++ (compound exhibited 76% or greater inhibition of calcium ion influx induced by proton stimulation)	101 to 500 nM	< 100 nM
O=S(=O)(c1ccc(Nc2ncnc3c2CCN(c2ncccc2Cl)C3)cc1)C(F)(F)F [Example 22, 7-(3-Chloropyridin-2-yl)-N-(4-(trifluoromethylsulphonyl)phenyl)-5,6,7,8-tetrahydropyrido[3,4-d]pyrimidin-4-amine]	++++ (compound exhibited 76% or greater inhibition of calcium ion influx induced by proton stimulation)	< 100 nM	< 100 nM
COc1nc2c(c(Nc3ccc(C(C)(C)C)cc3)n1)CCN(c1ncccc1Cl)C2 [Example 29, N-(4-tert-Butylphenyl)-7-(3-chloropyridin-2-yl)-5,6,7,8-tetrahydro-2-methoxypyrido[3,4-d]pyrimidin-4-amine]	++++ (compound exhibited 76% or greater inhibition of calcium ion influx induced by proton stimulation)	< 100 nM	< 100 nM
CC(C)(C)c1ccc(Nc2ncnc3c2CCN(c2ncccc2S(C)(=O)=O)C3)cc1 [Example 8, (4-tert-Butyl-phenyl)-[7-(3-methanesulfonyl-pyridin-2-yl)-5,6,7,8-tetrahydro-pyrido[3,4-d]pyrimidin-4-yl]-amine]	++++ (compound exhibited 76% or greater inhibition of calcium ion influx induced by proton stimulation)	101 to 500 nM	101 to 500 nM
Cc1ccccc1N1CCc2c(ncnc2Nc2ccc(C(F)(F)F)cc2)C1 [Example 45, 7-(o-Tolyl)-N-(4-(trifluoromethyl)phenyl)-5,6,7,8-tetrahydropyrido[3,4-d]pyrimidin-4-amine]	++++ (compound exhibited 76% or greater inhibition of calcium ion influx induced by proton stimulation)	< 100 nM	< 100 nM
CCS(=O)(=O)c1cccnc1N1CCc2c(ncnc2Nc2ccc(C(F)(F)F)cc2)C1 [Example 10, 7-(3-(Ethylsulfonyl)pyridin-2-yl)-N-(4-(trifluoromethyl)phenyl)-5,6,7,8-tetrahydropyrido[3,4-d]pyrimidin-4-amine]	+++ (compound exhibited 51-75% inhibition of calcium ion influx induced by proton stimulation)	101 to 500 nM	101 to 500 nM
FC(F)(F)c1ccc(Nc2nccc3c2CCN(c2ncccc2Cl)C3)cc1 [Example 26, 6-(3-Chloropyridin-2-yl)-N-(4-(trifluoromethyl)phenyl)-5,6,7,8-tetrahydro-2,6-naphthyridin-1-amine]	+ (compound exhibited 0-25% inhibition of calcium ion influx induced by proton stimulation)	–	> 1000 nM
FC(F)(F)c1ccc(Nc2ncnc3c2CCN(c2ncccc2Cl)C3)cn1 [Example 20]	++++ (compound exhibited 76% or greater inhibition of calcium ion influx induced by proton stimulation)	101 to 500 nM	101 to 500 nM
Cc1cccc(N2CCc3c(ncnc3Nc3ccc(C(F)(F)F)cc3)C2)c1 [Example 46, 7-(m-Tolyl)-N-(4-(trifluoromethyl)phenyl)-5,6,7,8-tetrahydropyrido[3,4-d]pyrimidin-4-amine]	+ (compound exhibited 0-25% inhibition of calcium ion influx induced by proton stimulation)	> 1000 nM	501 to 1000 nM
CN(C)c1nc2c(c(Nc3ccc(C(F)(F)F)cc3)n1)CCN(c1ncccc1Cl)C2 [Example 34, 7-(3-Chloropyridin-2-yl)-N^4-(4-(trifluoromethyl)phenyl)-5,6,7,8-tetrahydro-N^2N^2-dimethylpyrido[3,4-d]pyrimidine-2,4-diamine]	+ (compound exhibited 0-25% inhibition of calcium ion influx induced by proton stimulation)	101 to 500 nM	501 to 1000 nM
COCc1nc2c(c(Nc3ccc(C(C)(C)C)cc3)n1)CCN(c1ncccc1Cl)C2.Cl [Example 5, N-(4-tert-Butylphenyl)-7-(3-chloropyridin-2-yl)-5,6,7,8-tetrahydro-2-(methoxymethyl)pyrido[3,4-d]pyrimidin-4-amine hydrochloride]	++++ (compound exhibited 76% or greater inhibition of calcium ion influx induced by proton stimulation)	< 100 nM	< 100 nM
Clc1cccnc1N1CCc2c(ncnc2NCCc2ccccc2)C1 [Example 39, 7-(3-Chloropyridin-2-yl)-5,6,7,8-tetrahydro-N-phenethylpyrido[3,4-d]pyrimidin-4-amine]	++++ (compound exhibited 76% or greater inhibition of calcium ion influx induced by proton stimulation)	101 to 500 nM	> 1000 nM
